Test results: patent US20220040150A1, “I[…] ADMI[…] FOR DMT-ASSISTED PSYCHOTHERAPY” (Universitatsspital Basel, priority 2020, published 2022)
Entries after “also recorded” stand apart in the source; their conditions may differ. Read-outs that look alike come from different tables or passages of the source.

Legend:
[1] = cited from earlier work
[2] = 0.4 mg/kg iv bolus, cited from earlier work
healthy subjects [3] = experiment: Example 1 clinical study: 5D-ASC scale
healthy subjects [4] = experiment: Example 1 clinical study: blood pressure and heart rate; settings: perfusion with or without bolus
[5] = 2 minutes after iv bolus of 14 mg (approximately 0.2 mg/kg); cited from earlier work
healthy subjects [6] = experiment: Example 1 clinical study: subjective effects rating over time
[7] = Plasma levels of DMT after intravenous bolus plus continuous infusion (Gouzoulis-Mayfrank et al., 2005); type: in vivo; settings: human
Description: Previous research already documented the rapid action of DMT and its safety (Gouzoulis-Mayfrank et al., 2005). A study included 15 healthy volunteers. DMT was given at either a low or a high dose. The low dose consisted of a bolus injection of 0.2 mg/kg (˜15 mg) over 5 minutes followed by a break of one minute, followed by a continuous infusion with 0.015 mg/kg (˜1 mg)/min over 84 minutes. The high dose consisted of a bolus injection of 0.3 mg/kg (˜23 mg) and a continuous infusion with 0.02 mg/kg (˜1.5 mg)/min. The two doses were administered on the same day with a two-hour break between the end of the first and the beginning of the second administration in a single-blind design. Subjective effects were assessed and plasma concentrations of DMT were determined during the perfusion and thereafter. Effects of both doses included vivid alterations of visual, auditory, and tactile perception. […] Most subjects tended to report their experiences during the experiment spontaneously, and they were interested in interpersonal interactions. Mood varied from anxious and tense to expansive and euphoric with mostly vivid verbal, mimic, and psychomotor expression of emotions. Ego-control and insight into the experimental nature of the experience were preserved at the low dose. […]

healthy subjects [8] = experiment: Example 1 clinical study: adverse effects and list of complaints
Description: Identical placebo (saline) was prepared.
Adverse effects and list of complaints: The list of complaints (LC) consists of 66 items offering a global score measuring physical and general discomfort (Zerssen, 1976). The LC list is administered before and at the end of the session with reference to complaints throughout the entire session.

5-HT1 receptor = molecular target: T1, 5-HT1 receptor (Homo sapiens, UniProt P08908); settings: in contrast to psilocybin; cited from earlier work
T1 sequence (P08908 1-422): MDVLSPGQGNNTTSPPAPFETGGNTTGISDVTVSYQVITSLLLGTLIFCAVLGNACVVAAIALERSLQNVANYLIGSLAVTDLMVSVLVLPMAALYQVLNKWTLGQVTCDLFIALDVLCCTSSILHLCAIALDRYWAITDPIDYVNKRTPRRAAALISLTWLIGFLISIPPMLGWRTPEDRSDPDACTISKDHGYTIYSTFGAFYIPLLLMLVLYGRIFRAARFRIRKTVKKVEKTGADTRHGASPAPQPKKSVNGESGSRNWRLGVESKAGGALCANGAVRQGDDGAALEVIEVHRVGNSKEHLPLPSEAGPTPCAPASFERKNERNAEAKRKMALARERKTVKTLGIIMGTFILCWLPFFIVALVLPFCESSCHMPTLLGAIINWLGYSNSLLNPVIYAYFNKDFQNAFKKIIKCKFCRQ

[9] = perfusion with placebo bolus, two subjects

## CN(C)CCc1c[nH]c2ccccc12 [DMT, N,N-dimethyltryptamine]
[1]; 10 minutes before start of second dose, 110 minutes after stopping the first infusion
  Plasma levels of DMT: 5 ± 3 ng/mL
[1]; high dose: bolus 0.3 mg/kg, then infusion 0.02 mg/kg/min
  Mean plasma levels of DMT: 60 ± 28 ng/mL
[1]; low dose: bolus 0.2 mg/kg over 5 minutes, then infusion 0.015 mg/kg/min over 84 minutes
  Mean plasma levels of DMT: 43 ± 26 ng/mL
[2]; 2 minutes
  Blood levels of DMT base: ~90 ng/mL
[2]; 5 minutes
  Blood levels of DMT base: ~42 ng/mL
[2]; 10 minutes
  Blood levels of DMT base: ~28 ng/mL
[2]; 15 minutes
  Blood levels of DMT base: ~17 ng/mL
[2]; 30 minutes
  Blood levels of DMT base: ~5 ng/mL
Healthy subjects [3]; bolus and perfusion
  Anxiety (5D-ASC): almost absent
Healthy subjects [3]; bolus and perfusion compared with perfusion alone, mean in three subjects
  5D-ASC scores: more pronouncedly increased 5D-ASC scores
Healthy subjects [3]; perfusion with placebo bolus
  5D-ASC ratings: increased ratings of Oceanic Boundlessness and lower ratings in Anxious Ego-Dissolution and Visionary Restructuralization
Healthy subjects [4]
  effect on blood pressure and heart rate: only moderately and transiently increased blood pressure
[5]
  DMT blood concentrations: approximately 56 ng/mL
Healthy subjects [6]; 90 minutes perfusion
  duration of the psychedelic state: approximately 90 minutes
Healthy subjects [6]; available data from Example 1
  time to new steady state after starting the perfusion: approximately 20 minutes
Healthy subjects [6]; bolus and perfusion, 2-5 minutes after the bolus
  ratings of bad drug effects and anxiety: small increases
Healthy subjects [6]; bolus and perfusion, mean in three subjects
  ratings of any drug effects: maximal within seconds
Healthy subjects [6]; bolus and perfusion, three subjects
  ratings of good drug effects: maximal immediately after the DMT bolus administration and up to 30 minutes
Healthy subjects [6]; perfusion with placebo bolus
  bad drug effects and anxiety ratings: no bad drug effects and no anxiety
  time over which good drug effects steadily increased after start of the perfusion: 30 min
  time to disappearance of good drug effects after stopping the perfusion: less than 10 minutes
Healthy subjects [6]; perfusion with placebo bolus, dose used in the example
  description of the DMT experience: overall similar to LSD at a moderate dose of 0.05-0.1 mg LSD base
Healthy subjects [6]; [9]
  time over which any drug effects steadily increased after starting the perfusion: 30 min
  time to disappearance of effect after perfusion ended at 90 minutes: less than 10 minutes
[7]; in line with subjective effects and Strassman data, read-out: true half-life (likely)
  half-life: ~10 min
[7]; indicated by the very crude and possibly invalid plasma data, read-out: elimination half-life
  half-life: ~30 min
Healthy subjects [8]; Example 1
  relevant adverse effects: did not result in relevant adverse effects
  safety of administration: safe
Healthy subjects [8]; perfusion rate, Example 1
  highest dose still well-tolerated by the study population: 1 mg of DMT/min
Healthy subjects [8]; perfusion without bolus, two subjects
  reported complaints: lack of appetite; also recorded: tiredness, palpitations, cold feet, and dry mouth
5-HT1 receptor
  affinity to the 5-HT1 receptor: greater affinity
